Laboratory results taken from PubChem BioAssay (NCI).
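Each compound was tested at five concentrations against cells in 96-well plates for 48 hours. At the GI50, growth is halved. TGI marks complete inhibition of growth.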

Columns and labels:
Test in all cases: NCI anticancer screen, dose series, 48 h
[1] = system: 786-0 renal
[2] = system: A498 renal
[3] = system: A549 NSCLC
[4] = system: ACHN renal
[5] = system: BT-549 breast
[6] = system: CAKI-1 renal
[7] = system: COLO 205 colon
[8] = system: DU-145 prostate
[9] = system: EKVX NSCLC
[10] = system: HCC-2998 colon
[11] = system: HCT-116 colon
[12] = system: HCT-15 colon
[13] = system: HOP-92 NSCLC
[14] = system: HT29 colon
[15] = system: IGROV1 ovarian
[16] = system: KM12 colon
[17] = system: LOX IMVI melanoma
[18] = system: MALME-3M melanoma
[19] = system: MCF7 breast
[20] = system: MDA-MB-231 breast
[21] = system: MDA-MB-435
[22] = system: NCI-H226 lung
[23] = system: NCI-H23 lung
[24] = system: NCI-H460 lung
[25] = system: NCI-H522 lung
[26] = system: OVCAR-3 ovarian
[27] = system: OVCAR-4 ovarian
[28] = system: OVCAR-5 ovarian
[29] = system: OVCAR-8 ovarian
[30] = system: PC-3 prostate
[31] = system: RPMI-8226 leukemia
[32] = system: RXF 393 renal
[33] = system: SF-268 CNS
[34] = system: SF-295 CNS
[35] = system: SF-539 CNS
[36] = system: SK-MEL-2 melanoma
[37] = system: SK-MEL-28 melanoma
[38] = system: SK-MEL-5 melanoma
[39] = system: SK-OV-3 ovarian
[40] = system: SN12C renal
[41] = system: SNB-19 CNS
[42] = system: SW-620 colon
[43] = system: T-47D breast
[44] = system: TK-10 renal
[45] = system: U251 CNS
[46] = system: UACC-257 melanoma
[47] = system: UACC-62 melanoma
[48] = system: UO-31 renal
[49] = system: CCRF-CEM leukemia
[50] = system: HOP-62 NSCLC
[51] = system: K-562 leukemia
[52] = system: M14 melanoma
[53] = system: SNB-75 CNS

Cc1ccc(S(=O)(=O)c2ccccc2)cc1
GI50 [1]: 8.08 µM
TGI [1]: > 100 µM
GI50 [2]: 2.8 µM
TGI [2]: 29.5 µM
GI50 [3]: 4.27 µM
TGI [3]: > 100 µM
GI50 [4]: 11.7 µM
TGI [4]: > 100 µM
GI50 [5]: 8.05 µM
TGI [5]: > 100 µM
GI50 [6]: 2.39 µM
TGI [6]: > 100 µM
GI50 [7]: 2.71 µM
TGI [7]: 6.3 µM
GI50 [8]: 2.78 µM
TGI [8]: 7.9 µM
GI50 [9]: 3.87 µM
TGI [9]: > 100 µM
GI50 [10]: 6.82 µM
TGI [10]: 64.4 µM
GI50 [11]: 3.86 µM
TGI [11]: > 100 µM
GI50 [12]: 4.91 µM
TGI [12]: > 100 µM
GI50 [13]: 2.62 µM
TGI [13]: 26.2 µM
GI50 [14]: 2.7 µM
TGI [14]: 48.9 µM
GI50 [15]: 3.97 µM
TGI [15]: > 100 µM
GI50 [16]: 3.45 µM
TGI [16]: 68.5 µM
GI50 [17]: 5.05 µM
TGI [17]: > 100 µM
GI50 [18]: 4.76 µM
TGI [18]: > 100 µM
GI50 [19]: 4 µM
TGI [19]: > 100 µM
GI50 [20]: 3.63 µM
TGI [20]: > 100 µM
GI50 [21]: 0.834 µM
TGI [21]: 5.06 µM
GI50 [22]: 16.6 µM
TGI [22]: > 100 µM
GI50 [23]: 6.14 µM
TGI [23]: > 100 µM
GI50 [24]: 3.26 µM
TGI [24]: 21.1 µM
GI50 [25]: 1.82 µM
TGI [25]: 4.68 µM
GI50 [26]: 2.32 µM
TGI [26]: 5.02 µM
GI50 [27]: 22.2 µM
TGI [27]: > 100 µM
GI50 [28]: 8.44 µM
TGI [28]: > 100 µM
GI50 [29]: 5.77 µM
TGI [29]: > 100 µM
GI50 [30]: 4.24 µM
TGI [30]: > 100 µM
GI50 [31]: 3.4 µM
TGI [31]: 9.87 µM
GI50 [32]: 2.62 µM
TGI [32]: 7.54 µM
GI50 [33]: 5.82 µM
TGI [33]: > 100 µM
GI50 [34]: 2.55 µM
TGI [34]: 9.03 µM
GI50 [35]: 2.55 µM
TGI [35]: 7 µM
GI50 [36]: 3.01 µM
TGI [36]: > 100 µM
GI50 [37]: 5.65 µM
TGI [37]: > 100 µM
GI50 [38]: 4.01 µM
TGI [38]: > 100 µM
GI50 [39]: 3.89 µM
TGI [39]: 42.2 µM
GI50 [40]: 5.37 µM
TGI [40]: > 100 µM
GI50 [41]: 4.73 µM
TGI [41]: > 100 µM
GI50 [42]: 3.2 µM
TGI [42]: > 100 µM
GI50 [43]: 6.43 µM
TGI [43]: > 100 µM
GI50 [44]: 5.65 µM
TGI [44]: > 100 µM
GI50 [45]: 4.32 µM
TGI [45]: > 100 µM
GI50 [46]: 42 µM
TGI [46]: > 100 µM
GI50 [47]: 4.61 µM
TGI [47]: > 100 µM
GI50 [48]: 5.7 µM
TGI [48]: > 100 µM

C=CCN1C(=O)c2cccc3c(N4CCOCC4)ccc(c23)C1=O
GI50 [1]: 0.263 µM
TGI [1]: 32.7 µM
GI50 [2]: 0.0138 µM
TGI [2]: 0.0421 µM
GI50 [3]: 0.102 µM
TGI [3]: 0.595 µM
GI50 [4]: 0.113 µM
TGI [4]: > 100 µM
GI50 [5]: 0.0234 µM
TGI [5]: 0.294 µM
GI50 [49]: 0.0452 µM
TGI [49]: > 100 µM
GI50 [8]: 0.0638 µM
TGI [8]: 13.6 µM
GI50 [9]: 0.0405 µM
TGI [9]: 0.979 µM
GI50 [11]: 0.0961 µM
TGI [11]: 0.428 µM
GI50 [50]: 0.101 µM
TGI [50]: > 100 µM
TGI [13]: 0.0416 µM
GI50 [14]: 0.065 µM
TGI [14]: 11.1 µM
GI50 [15]: 0.0114 µM
TGI [15]: 0.0915 µM
GI50 [51]: 0.202 µM
TGI [51]: > 100 µM
GI50 [16]: 0.131 µM
TGI [16]: 60.9 µM
GI50 [17]: 0.023 µM
TGI [17]: 0.159 µM
GI50 [52]: 0.0429 µM
TGI [52]: > 100 µM
GI50 [21]: 0.0659 µM
TGI [21]: 22.2 µM
GI50 [22]: 0.167 µM
TGI [22]: 1.75 µM
GI50 [23]: 0.126 µM
TGI [23]: > 100 µM
GI50 [24]: 0.272 µM
TGI [24]: 12.7 µM
GI50 [25]: 0.206 µM
TGI [25]: 12.3 µM
GI50 [26]: 0.0118 µM
TGI [26]: 0.142 µM
GI50 [27]: 0.31 µM
TGI [27]: > 100 µM
GI50 [29]: 0.229 µM
TGI [29]: > 100 µM
GI50 [30]: 0.128 µM
TGI [30]: 0.748 µM
GI50 [32]: 0.0162 µM
TGI [32]: 0.128 µM
GI50 [33]: 0.104 µM
TGI [33]: 0.548 µM
GI50 [35]: 0.0293 µM
TGI [35]: 0.376 µM
GI50 [36]: 0.146 µM
TGI [36]: 0.675 µM
GI50 [37]: 0.0254 µM
TGI [37]: 0.492 µM
GI50 [38]: 0.0274 µM
TGI [38]: 0.127 µM
GI50 [39]: 0.0498 µM
TGI [39]: 0.667 µM
GI50 [40]: 0.0796 µM
TGI [40]: > 100 µM
TGI [53]: 40.6 µM
GI50 [42]: 0.249 µM
TGI [42]: 12.5 µM
GI50 [43]: 0.0148 µM
TGI [43]: 11.5 µM
GI50 [44]: 0.0623 µM
TGI [44]: 0.791 µM
GI50 [45]: 0.0592 µM
TGI [45]: 0.606 µM
GI50 [46]: 0.0685 µM
TGI [46]: 0.642 µM
GI50 [47]: 0.188 µM
TGI [47]: 0.613 µM
GI50 [48]: 0.0134 µM
TGI [48]: 0.322 µM
